Assay results: patent US20150352108A1, “AMINO-PYRIMIDINE COMPOUNDS AS INHIBITORS OF TBK1 AND/OR IKK EPSILON” (Alzheimer's Institute of America, priority 2009, published 2015)
Read-outs that look alike come from different tables or passages of the source.

Tests used:
TBK1 = molecular target: T1, TBK1 (Homo sapiens, UniProt Q9UHD2); assay: In-vitro TBK1 kinase assay ([γ33]ATP filter-plate); type: biochemical
T1 construct: His-tag; made in house; host or cells: Sf9 insect cells
T1 sequence (Q9UHD2 1-729): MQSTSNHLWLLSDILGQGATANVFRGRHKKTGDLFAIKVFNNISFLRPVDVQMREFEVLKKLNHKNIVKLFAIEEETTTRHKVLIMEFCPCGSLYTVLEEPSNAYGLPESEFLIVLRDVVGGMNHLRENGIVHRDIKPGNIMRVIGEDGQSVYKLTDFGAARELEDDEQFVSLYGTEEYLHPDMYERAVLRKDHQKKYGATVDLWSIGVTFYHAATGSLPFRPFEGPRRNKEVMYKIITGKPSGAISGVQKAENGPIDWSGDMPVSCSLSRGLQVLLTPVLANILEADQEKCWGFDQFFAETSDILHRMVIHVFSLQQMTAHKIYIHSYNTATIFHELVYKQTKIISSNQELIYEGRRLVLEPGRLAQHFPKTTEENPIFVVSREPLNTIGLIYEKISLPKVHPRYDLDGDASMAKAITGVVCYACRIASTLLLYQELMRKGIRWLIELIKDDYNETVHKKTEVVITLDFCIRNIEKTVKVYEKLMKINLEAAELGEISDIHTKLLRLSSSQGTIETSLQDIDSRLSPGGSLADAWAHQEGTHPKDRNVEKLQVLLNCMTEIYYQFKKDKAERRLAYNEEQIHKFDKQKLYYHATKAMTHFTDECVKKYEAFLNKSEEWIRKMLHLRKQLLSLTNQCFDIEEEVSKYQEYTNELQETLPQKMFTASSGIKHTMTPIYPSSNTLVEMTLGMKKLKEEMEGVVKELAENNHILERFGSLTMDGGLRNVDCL
Description: IKKε enzyme was produced as a His-tag fusion in Sf9 cells and used at a final concentration of […]. TBK1 enzyme was produced as a His-tag fusion in Sf9 cells and used at a final concentration of 0.1 μg/ml. Kinase reactions were carried out in reaction buffer using myelin basic protein (Millipore, Ballerica, Mass.) or casein (Sigma, St. Louis, Mo.) as substrate at an ATP concentration equal to twice the Km,ATP value for each enzyme, corresponding to 32 μM ATP for IKKε and 60 μM ATP for TBK1, in the presence of 0.3 μCi [γ^33]ATP (PerkinElmer, Waltham, Mass.). Final enzyme concentrations were 0.1 or 0.015 μg/ml (IKKε) and 0.1 or 0.02 μg/ml (TBK1), representing “normal” and “sensitized” assay conditions respectively. Test compounds (or DMSO solvent as a control) were added prior to initiation of the reactions. Reactions were terminated after 30-45 minutes by adding 3% phosphoric acid. Terminated reactions were transferred to P-81 cellulose phosphate filterplates (Whatman, Inc., Piscataway, N.J.) and washed with 1% phosphoric acid on a vacuum apparatus. After air drying, scintillant (PerkinElmer, Waltham, Mass.) was added and the plates were read on a PerkinElmer TopCount NXT instrument. Counts were normalized to DMSO controls after background subtraction.

IKKε = molecular target: T2, IKKε (Homo sapiens, UniProt Q14164); assay: In-vitro IKKε kinase assay ([γ33]ATP filter-plate); type: biochemical
T2 construct: His-tag; made in house; host or cells: Sf9 insect cells
T2 sequence (Q14164 1-716): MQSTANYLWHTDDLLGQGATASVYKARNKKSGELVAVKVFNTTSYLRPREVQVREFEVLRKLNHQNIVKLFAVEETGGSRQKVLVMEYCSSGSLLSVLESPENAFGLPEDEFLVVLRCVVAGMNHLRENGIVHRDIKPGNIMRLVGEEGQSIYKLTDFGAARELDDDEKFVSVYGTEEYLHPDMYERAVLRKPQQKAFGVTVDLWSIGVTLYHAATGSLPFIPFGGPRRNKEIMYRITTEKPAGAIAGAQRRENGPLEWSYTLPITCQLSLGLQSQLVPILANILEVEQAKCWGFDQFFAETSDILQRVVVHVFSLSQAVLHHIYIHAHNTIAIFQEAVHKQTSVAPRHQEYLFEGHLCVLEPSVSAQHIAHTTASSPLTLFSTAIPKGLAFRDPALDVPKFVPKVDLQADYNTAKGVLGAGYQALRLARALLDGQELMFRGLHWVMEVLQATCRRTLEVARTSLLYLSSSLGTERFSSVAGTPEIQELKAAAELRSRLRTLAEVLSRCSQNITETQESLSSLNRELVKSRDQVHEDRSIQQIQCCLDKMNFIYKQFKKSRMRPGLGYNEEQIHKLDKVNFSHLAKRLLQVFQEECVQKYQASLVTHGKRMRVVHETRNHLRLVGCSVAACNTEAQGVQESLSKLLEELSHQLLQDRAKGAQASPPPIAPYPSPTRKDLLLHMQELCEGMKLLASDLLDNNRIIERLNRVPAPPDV
Procedure, shortened: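 His-tagged IKKε and TBK1 from Sf9 cells were assayed with myelin basic protein or casein and [γ33]ATP at 2×Km ATP (32 μM for IKKε, 60 μM for TBK1). Enzyme was 0.1 or 0.015 μg/ml for IKKε and 0.1 or 0.02 μg/ml for TBK1 (normal/sensitized). Reactions ran 30-45 min, were filter-captured, scintillation-counted, and normalized to DMSO after background subtraction.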

[1] = text bins, read-out: IC50 for inhibition of the kinase activity of TBK1
[2] = text bins, read-out: IC50 for inhibition of the kinase activity of IKKε

SMILES	IC50 (TBK1; Table 3, read-out: TBK1 IC50) [µM]	IC50 (TBK1; [1]) [µM]	IC50 (IKKε; Table 3, read-out: IKKε IC50) [µM]	IC50 (IKKε; [2]) [µM]
N#Cc1cc(-c2ccnc(Nc3cccc(CS(=O)(=O)NCCO)c3)n2)ccc1OCC1CC1 [compound 611, 1-[3-({4-[3-Cyano-4-(cyclopropylmethoxy)phenyl]pyrimidin-2-yl}amino)phenyl]-N-(2-hydroxyethyl) methanesulfonamide]	0.0006	< 0.01	0.0015	< 0.005
COc1ccc(-c2ccnc(Nc3ccc(CN(C)C)cc3)n2)cc1C#N [Example 45, 5-[2-({4-[(Dimethylamino)methyl]phenyl}amino)pyrimidin-4-yl]-2-methoxybenzonitrile]	–	0.01 to 0.1	–	0.05 to 0.5
COc1ccc(-c2ccnc(Nc3ccc(N4CCN(C)C(=O)C4)c(OC)c3)n2)cc1C#N [Example 124]	–	< 0.01	–	< 0.005
COc1ccc(Nc2nccc(-c3ccc(OC(C)C)c(C#N)c3)n2)cc1OC [Example 111, 5-{2-[(3,4-Dimethoxyphenyl)amino]pyrimidin-4-yl}-2-(propan-2-yloxy)benzonitrile]	–	< 0.01	–	< 0.005
N#Cc1cc(-c2ccnc(Nc3ccc(N4CCOCC4)cc3)n2)ccc1OC1CCNCC1 [Example 194, 5-(2-{[4-(Morpholin-4-yl)phenyl]amino}pyrimidin-4-yl)-2-(piperidin-4-yloxy)benzonitrile]	–	< 0.01	–	0.005 to 0.05
COc1cc(NC(=O)NCCO)cc(Nc2nccc(-c3ccc(OC)c(C#N)c3)n2)c1 [compound 295, 1-(3-{[4-(3-Cyano-4-methoxyphenyl)pyrimidin-2-yl]amino}-5-methoxyphenyl)-3-(2-hydroxyethyl)urea]	–	0.01 to 0.1	–	0.005 to 0.05
N#Cc1cc(-c2ccnc(Nc3ccc(N4CCOCC4)cc3)n2)ccc1OC1CCCCC1 [Example 165, 2-(Cyclohexyloxy)-5-(2-{[4-(morpholin-4-yl)phenyl]amino}pyrimidin-4-yl)benzonitrile]	–	< 0.01	–	< 0.005
C[C@H](O)C(=O)N1CCC(Oc2ccc(-c3ccnc(Nc4ccc(C(=O)N(C)CCN(C)C)cc4)n3)cc2C#N)CC1 [compound 331, 4-({4-[3-cyano-4-({1-[(2S)-2-hydroxypropanoyl]piperidin-4-yl}oxy)phenyl]pyrimidin-2-yl}amino)-N-[2-(dimethylamino)ethyl]-N-methylbenzamide]	–	< 0.01	–	< 0.005
N#Cc1cc(-c2ccnc(Nc3ccc(N4CCOCC4)cc3)n2)ccc1OCC1CCOCC1 [Example 158, 5-(2-{[4-(morpholin-4-yl)phenyl]amino}pyrimidin-4-yl)-2-(tetrahydro-2H-pyran-4-ylmethoxy) benzonitrile]	–	< 0.01	–	< 0.005
CC(C)Oc1ccc(-c2ccnc(Nc3ccc(N4CCOCC4)cc3)n2)cc1C#N [Example 191, 5-(2-{[4-(Morpholin-4-yl)phenyl]amino}pyrimidin-4-yl)-2-(propan-2-yloxy)benzonitrile]	–	< 0.01	–	< 0.005
N#Cc1cc(-c2ccnc(Nc3ccc(N4CCOCC4)cc3)n2)ccc1O [Example 130, 2-Hydroxy-5-(2-{[4-(morpholin-4-yl)phenyl]amino}pyrimidin-4-yl)benzonitrile]	–	< 0.01	–	< 0.005
N#Cc1cc(-c2ccnc(Nc3ccc(N4CCOCC4)cc3)n2)ccc1OCC1CCN(C(=O)CO)CC1 [Example 233, 2-{[1-(hydroxyacetyl)piperidin-4-yl]methoxy}-5-(2-{[4-(morpholin-4-yl)phenyl]amino}pyrimidin-4-yl)benzonitrile]	–	< 0.01	–	0.005 to 0.05
N#Cc1cc(-c2ccnc(Nc3ccc(N4CCOCC4)cc3)n2)ccc1OC1CCN(C(=O)CO)C1 (stereo not drawn) [Example 96, 2-{[1-(Hydroxyacetyl)pyrrolidin-3-yl]oxy}-5-(2-{[4-(morpholin-4-yl)phenyl]amino}pyrimidin-4-yl)benzonitrile]	–	< 0.01	–	< 0.005
CCC(C)C(=O)Nc1ccc(-c2ccnc(Nc3ccc(N4CCOCC4)cc3)n2)cc1C#N (stereo not drawn) [compound 417, N-[2-cyano-4-(2-{[4-(morpholin-4-yl)phenyl]amino}pyrimidin-4-yl)phenyl]-2-methylbutanamide]	–	< 0.01	–	0.005 to 0.05
COc1ccc(-c2ccnc(Nc3ccc(OC4CCN(C)CC4)c(OC)c3)n2)cc1C#N [compound 302, 2-Methoxy-5-[2-({3-methoxy-4-[(1-methylpiperidin-4-yl)oxy]phenyl}amino)pyrimidin-4-yl]benzonitrile]	–	0.01 to 0.1	–	0.005 to 0.05
N#Cc1cc(-c2ccnc(Nc3ccc(NC(=O)Nc4cccnc4)cc3)n2)ccc1OC1CCOCC1 [Example 14, 1-[4-({4-[3-cyano-4-(tetrahydro-2H-pyran-4-yloxy)phenyl]pyrimidin-2-yl}amino)phenyl]-3-pyridin-3-ylurea]	–	< 0.01	–	< 0.005
CNS(=O)(=O)Cc1ccc(Nc2nccc(-c3ccc(OCC4CC4)c(C#N)c3)n2)cc1 [compound 644, 1-[4-({4-[3-Cyano-4-(cyclopropylmethoxy)phenyl]pyrimidin-2-yl}amino)phenyl]-N-methylmethane-sulfonamide]	–	< 0.01	–	< 0.005
CN(C)CC(=O)Nc1ccc(Nc2nccc(-c3cccc(C#N)c3)n2)cc1 [Example 183]	–	0.01 to 0.1	–	0.05 to 0.5
COc1cc(Nc2nccc(-c3ccc(OCCO)c(C#N)c3)n2)ccc1N1CCNC(=O)C1 [compound 296, 2-(2-Hydroxyethoxy)-5-(2-{[3-methoxy-4-(3-oxopiperazin-1-yl)phenyl]amino}pyrimidin-4-yl)benzonitrile]	–	< 0.01	–	0.005 to 0.05
N#Cc1cc(-c2ccnc(Nc3ccc4scnc4c3)n2)ccc1OC1CCOCC1 [Example 15, 5-[2-(1,3-benzothiazol-5-ylamino)pyrimidin-4-yl]-2-(tetrahydro-2H-pyran-4-yloxy)benzonitrile]	–	< 0.01	–	< 0.005
N#Cc1cc(-c2ccnc(Nc3ccc(N4CCOCC4)cc3)n2)ccc1OC1CCN(S(N)(=O)=O)CC1 [Example 80, 4-[2-cyano-4-(2-{[4-(morpholin-4-yl)phenyl]amino}pyrimidin-4-yl)phenoxy]piperidine-1-sulfonamide]	0.0004	< 0.01	0.0008	< 0.005
N#Cc1cc(-c2ccnc(Nc3ccc(N4CCOCC4)cc3)n2)ccc1OC1CCN(CCO)CC1 [Example 49, 2-{[1-(2-Hydroxyethyl)piperidin-4-yl]oxy}-5-(2-{[4-(morpholin-4-yl)phenyl]amino}pyrimidin-4-yl)benzonitrile]	–	< 0.01	–	0.005 to 0.05
